In US20160015034A1, “Co-Crystals of Pyrimethanil and Selected Dithiine Tetracarboximide” (BASF SE, priority 2013, published 2016):
≈ marks a conversion by molar mass, not a printed value.

Assays:
[1] = Isothermal TGA volatility study; format: physicochemical; conditions: isothermal TGA at 100 C., nitrogen flow, weight loss monitored for 12 hours
Description: Isothermal Analysis of the Co-Crystals
TG/DTA measurement was carried out on a Seiko TG/DTA 7200 instrument. An open aluminium pan was used and the measurement was carried out under nitrogen flow with a sample weight of 5 to 10 mg. The isothermal TGA for volatility studies were performed at 100 C. and the weight loss was monitored for 12 hours.

[2] = Water solubility by slurry equilibration and HPLC; format: physicochemical; conditions: pH 7, aqueous buffer, thermodynamic from solid
Description: Water Solubility of the Co-Crystals
The determination of the amount of the actives in solution was performed on HPLC ACQUITY (Water) system, equipped with PDA—230 nm UV detector and Sample Manager auto-injector.
Waters' Enpower software was used to record the chromatograms and to calculate the chromatographic parameters. Gradient elution (Acetonitrile—0.1% H3PO4) was achieved using C18 column, 50×2.1 mm, 1.7 μm BEH. Injection volume was set 1 μL by auto injector. The analysis were performed with rate flux of 0.4 ml/min. UV detection was performed at 245 nm. Peak identities were confirmed by spectrum and retention time comparison. All the analyses were performed at room temperature. All the analyzed solutions were prepared by slurry equilibration experiments. Particularly, water suspensions (KH2PO4/NaOH buffer having pH value of 7) of dithiine, pyrimethanil and the co-crystals were slurried for 1 hour, according with the maximum value of the intrinsic dissolution profile of the pure active. After 60 minutes small samples of about 1.0 ml were recovered with a syringe and filtered through a 0.1 micrometer PVDF Millipore filtration unit. Both solid phase and liquid phase were analyzed by XRPD and HPLC, respectively.

| SMILES | TGA Volatility (% weight loss per minute) [1] | solubility at 1 h [2] |
| --- | --- | --- |
| Cn1c(=O)c2sc3c(=O)n(C)c(=O)c3sc2c1=O | 5.45 × 10^−3 % weight loss per minute | 2 µg/mL (≈ 7.08 µM) |
| Cc1cc(C)nc(Nc2ccccc2)n1 [pyrimethanil] | 1.20 × 10^−2 % weight loss per minute | 58 µg/mL (≈ 291 µM) |
